The text below walks through data of US10941152B2, “Pyrazole compounds as modulators of FSHR and uses thereof” (TOCOPHERX, INC., priority 2014, dated 2021).

For test [1], the target named is T1, FSHR (Homo sapiens, UniProt P23945).
T1 construct: expressed in transfected cells; host or cells: CHO (Cho-FSHR-LUC-1-1-43)
T1 sequence (P23945 18-695): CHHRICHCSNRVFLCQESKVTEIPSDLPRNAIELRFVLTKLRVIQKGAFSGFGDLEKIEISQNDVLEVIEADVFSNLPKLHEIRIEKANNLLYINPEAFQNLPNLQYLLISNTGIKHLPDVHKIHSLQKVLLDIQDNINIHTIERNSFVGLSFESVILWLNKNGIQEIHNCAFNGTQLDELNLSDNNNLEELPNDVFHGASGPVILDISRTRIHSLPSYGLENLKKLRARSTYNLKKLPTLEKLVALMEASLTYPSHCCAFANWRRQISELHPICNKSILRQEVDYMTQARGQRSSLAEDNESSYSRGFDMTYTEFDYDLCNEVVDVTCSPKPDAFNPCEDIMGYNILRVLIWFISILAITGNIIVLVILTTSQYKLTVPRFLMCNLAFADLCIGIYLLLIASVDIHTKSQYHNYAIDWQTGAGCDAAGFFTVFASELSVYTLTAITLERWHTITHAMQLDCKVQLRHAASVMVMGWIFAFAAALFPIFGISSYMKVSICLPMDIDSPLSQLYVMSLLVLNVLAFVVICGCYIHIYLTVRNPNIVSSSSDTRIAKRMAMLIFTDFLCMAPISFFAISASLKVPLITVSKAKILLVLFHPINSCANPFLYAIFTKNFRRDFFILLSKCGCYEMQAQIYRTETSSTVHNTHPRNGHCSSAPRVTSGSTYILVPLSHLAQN
Kind of test: EC50 of cyclic AMP production in CHO FSHR cells + EC20 FSH (Assay A). It is filed as cell-based. The note with it: cyclic AMP production in CHO FSHR cells + EC20 FSH (0.265 pM), HTRF. In a few lines:
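CHO cells expressing FSHR, stimulated 1 h at 37° C with compound plus EC20 FSH (0.265 pM final) and 200 μM IBMX. cAMP measured by HTRF (665/620 nm ratio) after 1 h at room temperature; effect expressed relative to maximum response of FSH standard.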

In test [2] the target is T2, follicle-stimulating hormone (FSH) receptor (Rattus norvegicus, UniProt P20395).
T2 construct: endogenous in cells; host or cells: rat granulosa cells
T2 sequence (P20395 18-692): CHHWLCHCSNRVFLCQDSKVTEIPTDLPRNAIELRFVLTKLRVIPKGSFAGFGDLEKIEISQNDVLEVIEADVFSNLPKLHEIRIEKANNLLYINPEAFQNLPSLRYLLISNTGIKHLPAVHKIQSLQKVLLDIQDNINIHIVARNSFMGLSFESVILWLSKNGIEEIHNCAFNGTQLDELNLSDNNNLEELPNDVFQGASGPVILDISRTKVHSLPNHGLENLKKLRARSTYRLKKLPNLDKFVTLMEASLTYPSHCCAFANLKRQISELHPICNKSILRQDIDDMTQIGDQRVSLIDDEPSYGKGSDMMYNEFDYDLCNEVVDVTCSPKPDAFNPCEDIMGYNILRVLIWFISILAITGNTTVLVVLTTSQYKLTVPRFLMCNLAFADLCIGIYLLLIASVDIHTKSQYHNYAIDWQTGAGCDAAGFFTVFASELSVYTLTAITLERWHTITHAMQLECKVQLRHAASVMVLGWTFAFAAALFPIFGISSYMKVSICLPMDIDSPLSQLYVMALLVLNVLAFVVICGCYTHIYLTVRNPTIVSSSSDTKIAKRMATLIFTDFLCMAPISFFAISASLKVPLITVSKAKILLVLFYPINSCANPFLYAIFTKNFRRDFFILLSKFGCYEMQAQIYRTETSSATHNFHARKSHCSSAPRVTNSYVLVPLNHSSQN
In words: Rat granulosa EC50 FSH (Assay B). It is filed as cell-based. The procedure:
Example 25. Rat granulosa EC50 FSH (Assay B)
The assay was performed pursuant to the teaching of Yanofsky et al. (2006) Allosteric activation of the follicle-stimulating hormone (FSH) receptor by selective, nonpeptide agonists (JBC 281(19): 13226-13233, which is incorporated by reference in the disclosure of the invention).

SMILES strings stand for the structures.

As usually defined, the EC50 is the concentration at which the effect is half-maximal.

Consider `COc1cc2c(cc1-c1cncc(C(=O)O)c1)-c1c(c(C(=O)N3CCOCC3(C)C)nn1-c1cc(Cl)cc(Cl)c1)CO2` [Compound 178, 5-(1-(3,5-dichlorophenyl)-3-(3,3-dimethylmorpholine-4-carbonyl)-7-methoxy-1,4-dihydrochromeno[4,3-c]pyrazol-8-yl)nicotinic acid], for which the half-maximal effective concentration (EC50) in test [1] and in test [2] was < 10 nM throughout.

In the case of `COc1cc2c(cc1-c1ccn(C)n1)-c1c(c(C(=O)N3CCOCC3(C)C)nn1-c1cc(F)cc(Cl)c1)CO2` [Compound 29, (1-(3-chloro-5-fluorophenyl)-7-methoxy-8-(1-methyl-1H-pyrazol-3-yl)-1,4-dihydrochromeno[4,3-c]pyrazol-3-yl)(3,3-dimethylmorpholino)methanone], the EC50 in test [1] was 10 to 100 nM; in test [2] it was 101 to 500 nM.

Regarding `COc1cc2c(cc1-c1cc(C#N)ccn1)-c1c(c(C(=O)N(C)C(C)(C)C)nn1-c1cc(Cl)cc(Cl)c1)CO2` [Compound 26, N-tert-butyl-8-(4-cyanopyridin-2-yl)-1-(3,5-dichlorophenyl)-7-methoxy-N-methyl-1,4-dihydrochromeno[4,3-c]pyrazole-3-carboxamide], the concentration for a half-maximal effect (EC50) in test [1] was in the range of 10 to 100 nM; in test [2], 101 to 500 nM.

As for `COc1cc(OC)cc(-n2nc(C(=O)N(C)C(C)(C)C)c3c2-c2cc(-c4nn(C)cc4C#N)c(OC)cc2OC3)c1` [Compound 146, N-tert-butyl-8-(4-cyano-1-methyl-1H-pyrazol-3-yl)-1-(3,5-dimethoxyphenyl)-7-methoxy-N-methyl-1,4-dihydrochromeno[4,3-c]pyrazole-3-carboxamide], the concentration giving a half-maximal response (EC50) in test [1] is < 10 nM; in test [2], 101 to 500 nM.

As to `COc1cc2c(cc1-c1cncc(S(N)(=O)=O)c1)-c1c(c(C(=O)N(C)C(C)(C)C)nn1-c1cc(Cl)cc(Cl)c1)CO2` [Compound 66, N-tert-butyl-1-(3,5-dichlorophenyl)-7-methoxy-N-methyl-8-(5-sulfamoylpyridin-3-yl)-1,4-dihydrochromeno[4,3-c]pyrazole-3-carboxamide], the values for the EC50 in test [1] and in test [2] were < 10 nM and 10 to 100 nM, respectively.

In the case of `CCOC(=O)[C@@H]1C[C@@H]1c1cc2c(cc1OC)OCc1c(C(=O)N(C)C(C)(C)C)nn(-c3cc(Cl)cc(Cl)c3)c1-2` (racemic) [Compound 197, (1RS,2SR)-ethyl 2-(3-(tert-butyl(methyl)carbamoyl)-1-(3,5-dichlorophenyl)-7-methoxy-1,4-dihydrochromeno[4,3-c]pyrazol-8-yl)cyclopropanecarboxylate], the EC50 was 10 to 100 nM in test [1] and > 500 nM in test [2].

For the compound `COc1cc(F)cc(-n2nc(C(=O)N3CCOCC3(C)C)c3c2-c2cc(-c4cnn(CC(N)=O)c4)c(OC)cc2OC3)c1` [Compound 73, 2-(4-(3-(3,3-dimethylmorpholine-4-carbonyl)-1-(3-fluoro-5-methoxyphenyl)-7-methoxy-1,4-dihydrochromeno[4,3-c]pyrazol-8-yl)-1H-pyrazol-1-yl)acetamide], the half-maximal effective concentration (EC50) in test [1] was < 10 nM; in test [2] it was 101 to 500 nM.

In the case of `COc1cc2c(cc1-c1cc(C(N)=O)c[n+]([O-])c1)-c1c(c(C(=O)N3CCOCC3(C)C)nn1-c1cc(F)cc(F)c1)CO2` [Compound 176], the results for the concentration giving a half-maximal response (EC50) in test [1] and in test [2] were < 10 nM and 10 to 100 nM, respectively.

Consider `COc1cc2c(cc1-c1cncc(C#N)c1)-c1c(c(C(=O)N3CC[S+]([O-])CC3(C)C)nn1-c1cc(F)cc(F)c1)CO2` (stereo not drawn) [Compound 49], for which the EC50 in test [1] is < 10 nM; in test [2], 10 to 100 nM.

On to `COCC1(CC(C)C)CCCN1C(=O)c1nn(-c2ccsc2)c2c1COc1cc(OC)c(-c3ccn(C)n3)cc1-2` (stereo not drawn) [Compound 127, (2-isobutyl-2-(methoxymethyl)pyrrolidin-1-yl)(7-methoxy-8-(1-methyl-1H-pyrazol-3-yl)-1-(thiophen-3-yl)-1,4-dihydrochromeno[4,3-c]pyrazole-3-yl)methanone], for which the 50% effective concentration (EC50) was 10 to 100 nM in test [1] and 101 to 500 nM in test [2].

For the compound `COc1cc(C(N)=O)cc(-c2cc3c(cc2OC)OCc2c(C(=O)N(C)C(C)(C)C)nn(-c4cc(Cl)cc(Cl)c4)c2-3)n1` [Compound 115, N-tert-butyl-8-(4-carbamoyl-6-methoxypyridin-2-yl)-1-(3,5-dichlorophenyl)-7-methoxy-N-methyl-1,4-dihydrochromeno[4,3-c]pyrazole-3-carboxamide], the EC50 in test [1] is < 10 nM; in test [2], 101 to 500 nM.

Consider `COc1cc2c(cc1-c1cnn(CC(N)=O)c1)-c1c(c(C(=O)N3CCOCC3(C)C)nn1-c1cc(F)cc(Cl)c1)CO2` [Compound 69, 2-(4-(1-(3-chloro-5-fluorophenyl)-3-(3,3-dimethylmorpholine-4-carbonyl)-7-methoxy-1,4-dihydrochromeno[4,3-c]pyrazol-8-yl)-1H-pyrazol-1-yl)acetamide], for which the EC50 is < 10 nM in test [1] and 10 to 100 nM in test [2].

For the compound `COc1cc2c(cc1-c1cccnc1Cl)-c1c(c(C(=O)N(C)C(C)(C)C)nn1-c1ccsc1)CO2` [Compound 60, N-tert-butyl-8-(2-chloropyridin-3-yl)-7-methoxy-N-methyl-1-(thiophen-3-yl)-1,4-dihydrochromeno[4,3-c]pyrazole-3-carboxamide], the EC50 in test [1] was < 10 nM; in test [2], 101 to 500 nM.

As for `COC(=O)c1cc(-c2cc3c(cc2OC)OCc2c(C(=O)N(C)C(C)(C)C)nn(-c4cc(F)cc(F)c4)c2-3)cnc1N` [Compound 65, methyl 2-amino-5-(3-(tert-butyl(methyl)carbamoyl)-1-(3,5-difluorophenyl)-7-methoxy-1,4-dihydrochromeno[4,3-c]pyrazol-8-yl)nicotinate], the EC50 in test [1] was < 10 nM; in test [2], 10 to 100 nM.

Turning to `COc1cc2c(cc1-c1cncc(C(N)=O)c1)-c1c(c(C(=O)N(C)C(C)(C)C)nn1-c1ccccn1)CO2` [Compound 168], the EC50 in test [1] was < 10 nM; in test [2], 101 to 500 nM.

As for `COc1cc2c(cc1-c1cnn(CCO)c1)-c1c(c(C(=O)N(C)C(C)(C)C)nn1-c1cc(Cl)cc(Cl)c1)CO2` [Compound 1, N-tert-butyl-1-(3,5-dichlorophenyl)-8-(1-(2-hydroxyethyl)-1H-pyrazol-4-yl)-7-methoxy-N-methyl-1,4-dihydrochromeno[4,3-c]pyrazole-3-carboxamide], the EC50 in test [1] was < 10 nM; in test [2], 10 to 100 nM.

`COc1cc2c(cc1-c1cc(F)cc(C(=O)O)c1)-c1c(c(C(=O)N(C)C(C)(C)C)nn1-c1cc(Cl)cc(Cl)c1)CO2` [Compound 83, 3-(3-(tert-butyl(methyl)carbamoyl)-1-(3,5-dichlorophenyl)-7-methoxy-1,4-dihydrochromeno[4,3-c]pyrazol-8-yl)-5-fluorobenzoic acid]: the EC50 in test [1] is < 10 nM; in test [2], 101 to 500 nM.

Take `COc1cc2c(cc1-c1cnn(CC(=O)O)c1)-c1c(c(C(=O)N3CCOCC3(C)C)nn1-c1cc(F)cc(F)c1)CO2` [Compound 88, 2-(4-(1-(3,5-difluorophenyl)-3-(3,3-dimethylmorpholine-4-carbonyl)-7-methoxy-1,4-dihydrochromeno[4,3-c]pyrazol-8-yl)-1H-pyrazol-1-yl)acetic acid]: the figures for the EC50 in test [1] and in test [2] were 10 to 100 nM and 101 to 500 nM, respectively.
